Structures are written as SMILES.

One data set deals with HDAC 1 (Homo sapiens, UniProt Q13547). The data set is described as follows: Deacetylase enzyme assay (fluorescence release): HDAC1. It is filed as biochemical. The settings on record: 24-hour study. An excerpt:
(§1) Proteins from cells were extracted and subjected to the western blotting analysis. β-Actin was used as an internal control. The deacetylase enzyme assay was based on a homogeneous fluorescence release assay. […] After fluorophore from the deacetylated substrates, fluorescent signal was detected.

In data set [1] the test system is histone and α-tubulin acetylation in human BJAB B cell lymphoma. The data set is described as follows: Western blot: acetylation in BJAB cells. It is filed as cell-based. As to the method: More specifically, cells in the logarithmic phase were initially seeded at a density of 1×10^6 in 100 mm^2 dishes. […] Briefly, cells were lysed with the cell lysis reagent CelLytic™ M (Sigma-Aldrich) containing 1 mM DTT, 1 mM PMSF and protease inhibitors for whole-cell lysate preparation. Equal amounts of lysate (on a protein basis) were then differentiated using the SDS-PAGE, blotted on PVDF membranes, conjugated with various specific primary antibodies, and then probed with appropriate secondary antibodies. The immunoreactive bands were detected using the ECL method and visualized on Kodak Bio-MAX MR film.
as §1
(In general: Immunoblotting shows a protein as a band on a membrane.)

Data set [2] has as its system K6 (normal: keratinocyte). Put plainly: IC50 against cell lines: K6. The settings on record: Homo sapiens, read-out: IC50 ± SD against human cancer cell lines.
Data set [3] concerns HUVEC (normal: endothelial). Put plainly: IC50 against cell lines: HUVEC. As to conditions: Homo sapiens, read-out: IC50 ± SD against human cancer cell lines.
Another data set has as its system WI-38 (normal: lung). The data set is described as follows: IC50 against cell lines: WI-38. As to conditions: Homo sapiens, WI-38, read-out: IC50 ± SD against human cancer cell lines.
Data set [4] concerns Detroit551 (normal: fibroblast). The data set is described as follows: IC50 against cell lines: Detroit551. The settings on record: Homo sapiens, Detroit 551, read-out: IC50 ± SD against human cancer cell lines.
The test system of the next data set is KB-7D (KB resistant). The data set is described as follows: IC50 against human cancer cell lines: KB-7D. As to conditions: KB7D, read-out: IC50 ± SD against human cancer cell lines.
Data set [5] deals with LNCaP-R1 (prostate carcinoma). The data set is described as follows: IC50 against human cancer cell lines: LNCaP-R1. The settings on record: read-out: IC50 ± SD against human cancer cell lines.
Procedure: (§2) More specifically, the IC50 values of test compounds were determined by carrying out a fluorimetric histone deacetylase assay following the manufacturer's instructions. For a pan-HDAC assay, HeLa nuclear extracts were used as a source of histone deacetylase (BioVision Inc.). Histone deacetylase isomer inhibition assays were conducted using purified recombinant histone deacetylase proteins of the various isomers (BPS Bioscience Inc.). Reactions were performed in 0.1 mol/L KCl, 20 mmol/L HEPES/NaOH at pH 7.9, 20% glycerol, 0.2 mmol/L DTA, 0.5 mmol/L DTT, and 0.5 mmol/L phenylmethylsulfonylfluoride. […] Reactions were carried out in triplicate for each test compound. Each point represented the mean±SD of replicates.
The subject of a further data set is C6 glioma cell line. The data set is described as follows: Cell death in C6 glioma in vitro (LDH assay). As to conditions: rat C6 glioma, 30 uM, after 3 days. It is filed as cell-based. As to the method: Cell death was analyzed by a lactate dehydrogenase (LDH) assay. The culture medium was centrifuged after the experiment and the activity of LDH released into culture media was detected with a LDH cytotoxicity detection kit (Roche). The percentage of cytotoxicity was determined by the equation: [(Experimental group−Control group)/(Triton-100-treated group (100% maximal death)−Control group)]×100%.

Data set [6] concerns human glioblastoma (U87MG or GBM8401) cells. The data set is described as follows: Cell viability in human glioblastoma in vitro (MTT). It is filed as cell-based. As to conditions: U-87 MG, U87MG or GBM8401, 30 uM, read-out: reduction of the cell viability. As for the experimental part:
U87MG human glioblastoma cell line was treated with Compound 7 and analyzed following the procedure described below.
Cell viability was assessed by an MTT assay. Briefly, cells were incubated with 0.25 mg/mL MTT (Sigma) at 37° C. for 1 hour and the MTT fomazan were measured spectrophotometrically (μQuant, Bio-Tek) at 595 nm after dissolution of the crystals in DMSO.

Data set [7] relates to human colorectal HCT116 xenograft. Put plainly: In vivo antitumor activity assay, HCT116 xenograft. The settings on record: for inhibition of human colorectal HCT116 xenograft growth: day 22 after the first dosing. The source says:
The antitumor effect of the two test compounds were examined in mice xenografted with human PC3 prostate cancer cells or HCT116 colorectal cells.
Five million PC3 cells were subcutaneously inoculated into specific pathogen-free male athymic mice (strain BALB/cAnN.Cg-Foxn1nu/CrlNarl) from the National Laboratory Animal Center, Taiwan. Mice were subsequently fed under specific pathogen-free conditions and provided with sterile water and food. When the tumor volume reached 150 to 200 mm^3, mice were assigned to groups randomly and treated with vehicle control or Compound 7 or 5b at 25/50/100 mg/kg. The compound was administered once a day, 5 days/week for 2 weeks (n=6) by oral administration. Tumor volume and body weight change were measured twice a week. At the end of the experiments (day 25 after first dosing), animals were euthanized in a CO2-containing chamber, and the tumors were collected and fixed in formaldehyde. The terminal deoxynucleotidyl transferase-mediated dUTP nick end labeling assay (TUNEL) was conducted for apoptosis detection. Tumor tissue sections were analyzed using a FITC In Situ Cell death detection kit (Roche) and fluorescence microscopy. Tissue treated with DNase was used as the positive control. Green fluorescence labeled nucleus indicates the induction of DNA fragmentation.

Data set [8] deals with A549 (non-small-cell lung carcinoma). Put plainly: IC50 in human cancer cell lines (inhibiting HDAC): A549. As to conditions: Homo sapiens, A549, read-out: IC50, inhibiting HDAC in human cancer cell lines.
Another data set has as its system HSC-3 (oral carcinoma). Put plainly: IC50 in human cancer cell lines (inhibiting HDAC): HSC-3. The settings on record: HSC-3, read-out: IC50, inhibiting HDAC in human cancer cell lines.
In data set [9] the test system is human glioblastoma (U87-MG-LucNeo cells) xenograft. The data set is described as follows: In vivo antitumor activity against human glioblastoma xenograft tumor: survival. The settings on record: intracranial U87 xenograft, Compound 7 50-100 mg/kg p.o.; TMZ 50 mg/kg p.o. (In general: Xenograft models place foreign cells or tissue in a host animal.)
Source text: Male athymic nude mice at 5-6 weeks old were obtained from BioLasco (Taiwan) and maintained in a specific-pathogen-free facility. All experimental procedures were approved by the Institute of Animal Care and Use Committee of Taipei Medical University. Each nude mouse was anesthetized with an i.p. injection of xylazine (Sigma) and zolazepam (Zoletil 50, Virbac), and then secured in a stereotaxic frame.

HDAC 1, sequence (Q13547 whole entry, species assumed): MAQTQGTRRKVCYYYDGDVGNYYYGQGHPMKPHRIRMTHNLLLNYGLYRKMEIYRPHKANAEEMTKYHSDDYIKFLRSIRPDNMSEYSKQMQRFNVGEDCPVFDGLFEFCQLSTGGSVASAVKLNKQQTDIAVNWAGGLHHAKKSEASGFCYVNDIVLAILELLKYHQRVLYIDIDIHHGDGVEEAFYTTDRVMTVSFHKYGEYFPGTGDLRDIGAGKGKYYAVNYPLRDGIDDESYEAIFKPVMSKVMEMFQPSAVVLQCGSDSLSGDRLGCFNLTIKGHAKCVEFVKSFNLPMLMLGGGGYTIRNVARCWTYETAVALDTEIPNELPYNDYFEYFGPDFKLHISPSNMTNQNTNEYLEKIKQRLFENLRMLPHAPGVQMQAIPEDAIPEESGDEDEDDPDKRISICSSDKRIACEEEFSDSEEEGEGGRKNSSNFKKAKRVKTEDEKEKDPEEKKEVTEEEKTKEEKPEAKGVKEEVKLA
Procedure for KB-7D (KB resistant): as §2

In the case of `COc1ccc(S(=O)(=O)N2CCc3cc(/C=C/C(=O)NO)cnc32)cc1` [Compound 5b, (E)-N-hydroxy-3-(1-(4-methoxyphenylsulfonyl)-2,3-dihydro-1H-pyrrolo[2,3-b]pyridin-5-yl)acrylamide], the “concentration inducing inhibition of HDAC 1” value at HDAC 1 was no more than 50 nM. The “histone and α-tubulin acetylation” value in [1] is “induced histone and α-tubulin acetylation”. Further, the IC50 (usually the concentration needed to halve the response being measured) in data set [2] worked out at 545 ± 39 nM; in data set [3] it was 62 ± 2.8 nM; with WI-38 (normal: lung), 272 ± 52.3 nM; in [4], 707 ± 64.7 nM; in the data set with KB-7D (KB resistant), 139 ± 26.8 nM; in data set [5] it was 150 ± 30 nM.

As for `O=C(/C=C/c1cccc(S(=O)(=O)n2ccc3cccnc32)c1)NO` [Compound 7, (E)-3-(3-(1H-Pyrrolo[2,3-b]pyridin-1-ylsulfonyl)phenyl)-N-hydroxyacrylamide], in the data set on C6 glioma cell line, the “induction of cell death (LDH)” value was “about 100%”. Also, in data set [6], the cytotoxicity at 30 µM was roughly 70%. In addition, the “inhibition of human colorectal HCT116 xenograft growth” value in data set [7] (25 mg/kg), in data set [7] (50 mg/kg) and in [7] (100 mg/kg) was 50-60% in each case. Besides, the body weight change result in data set [7] (HCT116 xenograft mice, 25, 50 and 100 mg/kg) is listed as “without causing much body weight change”. The half-maximal inhibitory concentration (IC50) was determined as 1330 ± 190 nM in data set [8] and 660 ± 120 nM in the data set on HSC-3 (oral carcinoma). Besides, the survival entry in data set [9] is “extended survival longer than TMZ”.

The values are drawn from patent publication US10246455B2, “Histone deacetylase inhibitors” (Taipei Medical University, priority 2014, dated 2019).
